Tests used:
[1] = guinea pig, in vivo
neurotensin receptors = details: in vivo; cited from earlier work

Row | Compound | duration of local anesthesia [1] | potency in inhibiting pain relative to neurotensin (neurotensin receptors)
1 | CCCCN1CCCCC1C(=O)Nc1c(C)cccc1C (centres unmarked) [bupivacaine] | slightly longer duration thatn lidocaine | –
2 | contulakin-G | – | significantly more potent than neurotensin
